The values below come from PubChem BioAssay (NCI).

Some test systems named below: OVCAR-4 ovarian; SNB-75 CNS; SF-295 CNS; SW-620 colon; SR leukemia; UO-31 renal; HL-60(TB) leukemia; SK-MEL-28 melanoma; MCF7 breast; MDA-MB-435.
Assay in all cases: DTP human tumour cell line panel, 48 h

By TGI is commonly meant the concentration giving total growth inhibition. A high value points to lower sensitivity of the cells. As usually defined, the GI50 is the concentration at which growth is held to half of that of the control.

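Method: 48-hour compound exposure of cells in 96-well plates, five concentrations, linear interpolation of endpoints. Abbreviation: GI50, concentration required for 50% inhibition of growth. The concentration for full growth arrest is given as TGI.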 Bounds are passed on as bounds.

In the case of `O=[N+]([O-])c1ccccc1S(=O)(=O)c1ccccc1`, the TGI with OVCAR-4 ovarian is over 100 µM; in the assay on SNB-75 CNS, over 100 µM; in the assay with SF-295 CNS it was over 100 µM; in the assay with SW-620 colon it was over 100 µM; with SR leukemia, over 100 µM; in the assay on UO-31 renal, 90.6 µM. In addition, the concentration for total growth inhibition (TGI) in the assay on HL-60(TB) leukemia and in the assay with SK-MEL-28 melanoma was over 100 µM throughout.
With `Cc1ccc(NC(=O)C(Cc2c[nH]c3ccccc23)NC(=O)Oc2ccccc2)cc1C` (stereo unspecified), the TGI in the assay on OVCAR-4 ovarian, in the assay with MCF7 breast, in the assay with SF-295 CNS, in the assay with SW-620 colon, with MDA-MB-435 and in the assay with UO-31 renal was over 100 µM throughout. Moreover, the TGI with HL-60(TB) leukemia and in the assay with SK-MEL-28 melanoma was over 100 µM in each case.
Turning to `O=S(OC12CC3CC(CC(C3)C1)C2)c1cc(Cl)cc(Cl)c1OCc1ccccc1` (stereo unspecified), the TGI in the assay on OVCAR-4 ovarian, in the assay with SNB-75 CNS, with SR leukemia, with UO-31 renal, with HL-60(TB) leukemia and in the assay with SK-MEL-28 melanoma was over 100 µM each time.
In the case of `Cc1cn(C2CC(N)C(C(=O)NCC(=O)O)O2)c(=O)[nH]c1=O` (stereo unspecified), the concentration for total growth inhibition (TGI) in the assay on OVCAR-4 ovarian, in the assay with MCF7 breast, in the assay with SNB-75 CNS, in the assay with SW-620 colon, in the assay with MDA-MB-435 and in the assay with SR leukemia was over 100 µM in each case. The TGI in the assay on UO-31 renal, in the assay on HL-60(TB) leukemia and in the assay on SK-MEL-28 melanoma was over 100 µM each time.
Consider `CC1(C)C(=O)c2ccccc2OC1N1CCN(C2Oc3ccccc3C(=O)C2(C)C)CC1` (stereo unspecified), for which the concentration for total growth inhibition (TGI) in the assay with OVCAR-4 ovarian, with MCF7 breast, in the assay with SNB-75 CNS, in the assay on SW-620 colon, with MDA-MB-435 and in the assay on SR leukemia was over 100 µM in each case. The TGI in the assay with UO-31 renal, with HL-60(TB) leukemia and with SK-MEL-28 melanoma was over 100 µM throughout.
For `COc1ccc(-c2ccc(-c3ccc(C(=N)N)nc3)s2)cc1Cl`, the GI50 in the assay with OVCAR-4 ovarian is 1.74 µM; in the assay on SNB-75 CNS, 1.43 µM; with SF-295 CNS, 1.8 µM; with SW-620 colon, 1.79 µM; in the assay on MDA-MB-435, 1.73 µM; with UO-31 renal, 1.55 µM. Also, the TGI with OVCAR-4 ovarian turned out to be 3.25 µM; in the assay with SNB-75 CNS it was 2.8 µM; in the assay on SF-295 CNS, 3.24 µM; in the assay on SW-620 colon, 3.37 µM; in the assay with MDA-MB-435, 3.12 µM; with UO-31 renal, 2.91 µM.
For `Nc1ccccc1.[C-]#[O+].[C-]#[O+].[C-]#[O+].[C-]#[O+].[C-]#[O+].[Cr]`, the GI50 is 6.7 µM in the assay on OVCAR-4 ovarian; 2.43 µM in the assay with MCF7 breast; 4.05 µM with SNB-75 CNS; over 10 µM with SF-295 CNS; over 10 µM in the assay on SW-620 colon; 3.67 µM in the assay with MDA-MB-435. In addition, the GI50 in the assay with SR leukemia was 4.64 µM; in the assay on UO-31 renal, 1.86 µM; in the assay on HL-60(TB) leukemia, 1.68 µM; with SK-MEL-28 melanoma it was 4.52 µM. Besides, the TGI in the assay on OVCAR-4 ovarian, with MCF7 breast, in the assay with SNB-75 CNS, in the assay on SF-295 CNS, in the assay with SW-620 colon and with MDA-MB-435 was over 10 µM each time. The TGI in the assay on SR leukemia is over 10 µM; in the assay with UO-31 renal it was 9.66 µM; with HL-60(TB) leukemia, 6.94 µM; in the assay with SK-MEL-28 melanoma it was over 10 µM.
Regarding `COc1cc2oc(=O)cc(C)c2cc1O`, the total growth inhibition concentration (TGI) in the assay on OVCAR-4 ovarian, in the assay on MCF7 breast, in the assay on SNB-75 CNS, in the assay with SF-295 CNS, with SW-620 colon and in the assay on MDA-MB-435 was over 100 µM in each case. Further, the TGI in the assay on SR leukemia, in the assay with UO-31 renal, with HL-60(TB) leukemia and in the assay on SK-MEL-28 melanoma was over 100 µM throughout.
Consider `C=CCN1C(=O)/C(=C/c2ccco2)N=C1SC1OC(COC(C)=O)C(OC(C)=O)C(OC(C)=O)C1OC(C)=O` (stereo unspecified), for which the TGI in the assay with OVCAR-4 ovarian, with MCF7 breast, with SNB-75 CNS, with SF-295 CNS, with SW-620 colon and with MDA-MB-435 was over 100 µM each time. For the same molecule, the TGI with SR leukemia is over 100 µM; in the assay on HL-60(TB) leukemia, 53.4 µM; in the assay with SK-MEL-28 melanoma it was over 100 µM.
